# Source: patent publication US12685735B2 (Foghorn Therapeutics Inc., priority 2020, dated 2026)
# What was measured:
# [1] = molecular target: BRG-1 (Homo sapiens, UniProt P51532); assay: ATPase catalytic activity assay of BRG-1 (ADP-Glo); type: biochemical; conditions: ATPase catalytic activity, ADP-Glo; for IC50: read-out: BRG1 IC50 (μM)*; for Emax: read-out: BRG1 Max % Inhibition
# In short: (§1)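 Two room-temperature incubations follow the reaction: 40 min to eliminate unused ATP, then 60 min to turn ADP into ATP driving luciferase light output. Activity is read as luminescence proportional to ADP formed.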
# [2] = molecular target: BRM (Homo sapiens, UniProt P51531); assay: ATPase catalytic activity assay of BRM (ADP-Glo); type: biochemical; conditions: for IC50: read-out: BRM IC50 (μM)*
# Chain of BRM (P51531 whole entry): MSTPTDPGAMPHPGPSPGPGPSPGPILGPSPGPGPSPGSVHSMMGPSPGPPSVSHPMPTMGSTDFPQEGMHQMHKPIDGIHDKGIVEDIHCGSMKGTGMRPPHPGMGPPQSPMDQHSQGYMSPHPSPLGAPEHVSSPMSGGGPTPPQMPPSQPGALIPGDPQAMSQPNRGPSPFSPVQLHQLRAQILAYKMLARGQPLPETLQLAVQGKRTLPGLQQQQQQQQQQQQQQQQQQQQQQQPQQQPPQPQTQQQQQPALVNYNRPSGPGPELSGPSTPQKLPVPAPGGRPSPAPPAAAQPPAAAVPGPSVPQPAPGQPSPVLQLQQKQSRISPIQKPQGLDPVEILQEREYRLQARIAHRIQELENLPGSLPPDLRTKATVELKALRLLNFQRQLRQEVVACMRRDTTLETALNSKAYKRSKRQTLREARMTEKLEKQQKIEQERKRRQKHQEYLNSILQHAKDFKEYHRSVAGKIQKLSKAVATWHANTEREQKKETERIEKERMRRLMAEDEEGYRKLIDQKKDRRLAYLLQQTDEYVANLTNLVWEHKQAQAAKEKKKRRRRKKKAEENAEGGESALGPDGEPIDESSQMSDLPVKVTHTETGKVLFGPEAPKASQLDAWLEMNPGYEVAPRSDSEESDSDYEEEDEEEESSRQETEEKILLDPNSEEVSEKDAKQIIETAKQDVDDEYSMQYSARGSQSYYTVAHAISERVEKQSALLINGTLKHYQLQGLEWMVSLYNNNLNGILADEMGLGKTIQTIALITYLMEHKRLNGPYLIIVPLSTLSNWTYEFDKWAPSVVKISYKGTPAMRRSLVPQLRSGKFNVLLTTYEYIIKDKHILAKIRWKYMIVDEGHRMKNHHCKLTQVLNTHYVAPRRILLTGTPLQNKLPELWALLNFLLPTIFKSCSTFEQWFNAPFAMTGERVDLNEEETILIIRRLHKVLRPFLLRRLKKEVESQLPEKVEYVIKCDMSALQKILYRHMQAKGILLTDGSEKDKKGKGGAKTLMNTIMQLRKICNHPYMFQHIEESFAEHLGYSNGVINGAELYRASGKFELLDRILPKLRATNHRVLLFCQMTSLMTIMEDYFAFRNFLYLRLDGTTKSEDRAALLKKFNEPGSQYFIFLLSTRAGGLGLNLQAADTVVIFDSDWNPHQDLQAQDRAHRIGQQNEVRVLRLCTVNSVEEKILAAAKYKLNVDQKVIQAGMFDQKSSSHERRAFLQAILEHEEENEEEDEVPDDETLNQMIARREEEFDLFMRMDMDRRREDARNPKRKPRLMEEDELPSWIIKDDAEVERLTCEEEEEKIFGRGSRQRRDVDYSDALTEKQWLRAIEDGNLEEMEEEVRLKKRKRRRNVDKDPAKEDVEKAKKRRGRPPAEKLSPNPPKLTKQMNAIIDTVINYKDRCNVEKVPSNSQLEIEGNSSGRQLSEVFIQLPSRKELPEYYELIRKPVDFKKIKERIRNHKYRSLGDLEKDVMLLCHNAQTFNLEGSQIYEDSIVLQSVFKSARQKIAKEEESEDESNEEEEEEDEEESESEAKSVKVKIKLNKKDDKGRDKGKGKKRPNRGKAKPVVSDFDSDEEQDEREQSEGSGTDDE
# In short: as §1
# Chain of BRG-1 (P51532 whole entry): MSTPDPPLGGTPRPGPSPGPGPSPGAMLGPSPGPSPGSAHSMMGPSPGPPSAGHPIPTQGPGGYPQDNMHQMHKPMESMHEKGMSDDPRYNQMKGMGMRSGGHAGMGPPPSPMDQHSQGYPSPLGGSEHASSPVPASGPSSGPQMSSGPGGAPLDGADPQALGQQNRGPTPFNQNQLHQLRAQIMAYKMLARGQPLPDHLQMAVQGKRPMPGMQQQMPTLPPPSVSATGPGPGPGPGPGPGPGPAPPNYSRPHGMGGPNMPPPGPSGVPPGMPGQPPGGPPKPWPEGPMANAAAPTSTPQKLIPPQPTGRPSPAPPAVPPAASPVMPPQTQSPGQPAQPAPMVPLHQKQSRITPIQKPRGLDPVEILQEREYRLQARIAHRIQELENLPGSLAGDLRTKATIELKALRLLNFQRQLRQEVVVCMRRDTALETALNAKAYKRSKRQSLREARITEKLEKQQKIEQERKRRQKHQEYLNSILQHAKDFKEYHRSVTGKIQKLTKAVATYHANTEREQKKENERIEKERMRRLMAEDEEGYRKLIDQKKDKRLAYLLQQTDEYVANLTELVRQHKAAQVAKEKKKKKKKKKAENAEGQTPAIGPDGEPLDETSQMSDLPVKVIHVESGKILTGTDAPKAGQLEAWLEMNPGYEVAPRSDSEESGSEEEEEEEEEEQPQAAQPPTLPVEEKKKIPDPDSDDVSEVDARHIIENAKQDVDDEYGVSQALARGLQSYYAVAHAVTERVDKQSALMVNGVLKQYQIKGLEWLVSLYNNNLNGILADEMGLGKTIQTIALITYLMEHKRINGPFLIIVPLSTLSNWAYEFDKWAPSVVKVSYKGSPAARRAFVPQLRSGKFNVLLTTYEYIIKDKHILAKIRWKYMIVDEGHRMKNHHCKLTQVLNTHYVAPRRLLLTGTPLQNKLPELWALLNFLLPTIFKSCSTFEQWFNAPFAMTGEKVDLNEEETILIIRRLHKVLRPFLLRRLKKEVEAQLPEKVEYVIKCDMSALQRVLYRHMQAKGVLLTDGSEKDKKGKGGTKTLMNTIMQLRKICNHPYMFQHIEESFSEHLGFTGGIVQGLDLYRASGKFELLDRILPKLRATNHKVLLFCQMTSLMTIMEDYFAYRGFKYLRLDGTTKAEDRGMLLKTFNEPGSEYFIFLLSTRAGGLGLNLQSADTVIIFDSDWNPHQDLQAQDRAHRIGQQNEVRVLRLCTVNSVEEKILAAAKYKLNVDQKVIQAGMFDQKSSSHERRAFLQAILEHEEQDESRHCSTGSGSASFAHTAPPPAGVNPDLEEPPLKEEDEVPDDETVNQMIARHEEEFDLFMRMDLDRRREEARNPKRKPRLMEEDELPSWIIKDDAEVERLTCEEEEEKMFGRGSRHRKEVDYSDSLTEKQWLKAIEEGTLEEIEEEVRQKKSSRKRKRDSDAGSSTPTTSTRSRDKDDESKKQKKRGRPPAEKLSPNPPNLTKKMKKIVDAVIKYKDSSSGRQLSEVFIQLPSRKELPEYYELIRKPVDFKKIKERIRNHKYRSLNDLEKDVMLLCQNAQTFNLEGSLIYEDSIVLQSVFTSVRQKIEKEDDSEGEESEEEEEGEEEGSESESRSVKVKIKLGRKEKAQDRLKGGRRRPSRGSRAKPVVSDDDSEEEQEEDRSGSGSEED
SMILES,IC50 [1] [µM],Emax [1] [%],BRM Max % Inhibition [2] [%],IC50 [2] [µM]
"C[C@@H]1CN(c2cccc(-c3csc(NC(=O)CNC(=O)c4ccc5c(c4)[C@](C#N)(CO)CC5)n3)n2)C[C@H](C)O1 [Compound 159, (R)-3-cyano-N-(2-((4-(6-((cis)-2,6-dimethylmorpholino)pyridin-2-yl)thiazol-2-yl)amino)-2-oxoethyl)-3-(hydroxymethyl)-2,3-dihydro-1H-indene-5-carboxamide]",< 0.1,> 95,>95,< 0.1
"C[C@@H]1CN(c2cccc(-c3csc(NC(=O)CNC(=O)c4cccc(C5(F)CC6(COC6)C5)c4)n3)n2)C[C@H](C)O1 [Compound 318, N-(2-((4-(6-((cis)-2,6-dimethylmorpholino)pyridin-2-yl)thiazol-2-yl)amino)-2-oxoethyl)-3-(6-fluoro-2-oxaspiro[3.3]heptan-6-yl)benzamide]",> 5,> 90,>90,0.1 to 1
"COc1cc(F)cc(-c2csc(NC(=O)C(C)NC(=O)c3ccc4c(c3)[C@](C)(F)COC4)n2)c1 (stereo in doubt) [Compound 334, (S)-4-fluoro-N-((R)-1-((4-(3-fluoro-5-methoxyphenyl)thiazol-2-yl)amino)-1-oxopropan-2-yl)-4-methylisochromane-6-carboxamide]",0.1 to 1,> 95,>95,< 0.1
"CC(=O)N(C)c1cc(-c2cccc(-c3csc(NC(=O)CNC(=O)c4cccc(S(=O)(=O)C(C)C)c4)n3)c2)ccn1 [Compound 25, 3-(isopropylsulfonyl)-N-(2-((4-(3-(2-(N-methylacetamido)pyridin-4-yl)phenyl)thiazol-2-yl)amino)-2-oxoethyl)benzamide]",0.1 to 1,> 80,>90,< 0.1
"Cc1cc(-c2cccc(-c3csc(NC(=O)CNC(=O)c4cccc(S(=O)(=O)C(C)C)c4)n3)n2)ncn1 [Compound 117, 3-isopropylsulfonyl-N-[2-[[4-[6-(6-methylpyrimidin-4-yl)-2-pyridyl]thiazol-2-yl]amino]-2-oxo-ethyl]benzamide]",0.1 to 1,> 80,>95,< 0.1
"C[C@@H]1CN(c2cccc(-c3csc(NC(=O)CNC(=O)c4ccc5c(c4)[C@](C)(CO)CC5)n3)c2)C[C@H](C)O1 [Compound 218, (R)-N-(2-((4-(3-((cis)-2,6-dimethylmorpholino)phenyl)thiazol-2-yl)amino)-2-oxoethyl)-3-(hydroxymethyl)-3-methyl-2,3-dihydro-1H-indene-5-carboxamide]",1 to 5,> 80,>90,0.1 to 1
"C[C@@H]1CN(c2cccc(-c3csc(NC(=O)CNC(=O)c4ccc5c(c4)[C@@]4(CCC[C@@H]4O)CC5)n3)c2)C[C@H](C)O1 [Compound 186, (1R,2S)-N-(2-((4-(3-((cis)-2,6-dimethylmorpholino)phenyl)thiazol-2-yl)amino)-2-oxoethyl)-2-hydroxy-2′,3′-dihydrospiro[cyclopentane-1,1′-indene]-6′-carboxamide]",1 to 5,> 70,>95,< 0.1
"C[C@@H]1CN(c2cccc(-c3csc(NC(=O)CNC(=O)c4ccc5c(c4)[C@@](C)(CO)CCO5)n3)c2)C[C@H](C)O1 [Compound 166, (S)-N-(2-((4-(3-((cis)-2,6-dimethylmorpholino)phenyl)thiazol-2-yl)amino)-2-oxoethyl)-4-(hydroxymethyl)-4-methylchroman-6-carboxamide]",> 5,> 50,>95,0.1 to 1
